Laboratory results: patent US10184933B2, “Compositions, systems and methods for gene expression noise drug screening and uses thereof” (priority 2013, dated 2019)
“Also recorded” adds a separate entry of the source. Where a name gives a salt, the structure may show the parent alone. Read-outs that look alike come from different tables or passages of the source.

How the values were obtained:
JLat cell line 8.6 = tested on: JLat cell line 8.6
Procedure: FIG. 17 schematically depicts reactivation percentage versus drug toxicity for conventional reactivation cocktails (e.g. TNF+Prostratin, SAHA+Prostratin, SAHA+TNF+Prostratin) and 21 cocktails containing noise-enhancer compounds in combination with TNF+Prostratin. Controls: TNF alone, Prostratin alone, and Untreated, as indicated. Measurements were performed in duplicate on JLat cell line 8.6 after 48 h treatment. […] Details are described, e.g., in Example 9.
(§1) To test whether reactivation could be further optimized, the doses of noise enhancers and activators were varied (FIG. 14).

HIV-1 LTR promoter [1] = experiment: Two-reporter system (LTR-d2GFP and LTR-mCherry) noise measurement; assay type: cell-based; conditions: FIG. 6E; for d2GFP noise / mCherry noise: known transcriptional activators; for transcriptional burst frequency (decreasing noise in mCherry): transcriptional modifiers
Procedure: Without being bound by theory, a destabilized reporter is required to observe transcriptional noise with shorter time scales. GFP noise magnitude (quantified by the variance over the mean fluorescence squared, CV^2) and mean fluorescence were measured by high-throughput flow cytometry 24 hours post 10 uM drug exposure. To control for extrinsic variability in gene expression due to cell volume and state a conservative gating on the population forward versus side scatter was applied (See General Methods). A second LTR driving a long-lived mCherry reporter was integrated and screened alongside the destabilized reporter drug target to control for fluctuations in global resources and post-transcriptional noise sources (FIG. 6E).
To distinguish between compounds that primarily target transcription versus post-transcriptional processes and global resources (extrinsic noise) a second reporter of the LTR promoter driving a stable mCherry gene was included in the same targeted cell population used in the drug noise screen (FIG. 6E). The stable reporter averages out and is unaffected by fluctuations due to episodic transcription. Theory predicts that the destabilized d2GFP reporter can detect transcriptional bursting noise contributions (γp>>kon,koff, where γp is the fluorescent reporter degradation rate) while the two reporters together will move their noise magnitudes to changes in non-transcriptional noise sources. Filtering out non-transcriptional noise signatures of VM hits increases the probability for synergistic reactivation of latency. Noise from the two reporters was compared using the same processing as the LTR-d2GFP. The LTR-mCherry ΔCV^2 of the 85 selected VMs primarily land along the ΔCV^2 d2GFP axis. […]. Of these 25 compounds 15 were identified as modifiers of cell cycle, ATP, inflammation, post-translational modifications, and translation.
In addition to the GFP reporter in the LTR-d2GFP cell line, an LTR driving a long half-life mCherry reporter was present in the cell line. […] To remove compounds that altered CV^2 post transcriptionally, compounds that affected the CV^2 long-lived red reporter while conserving its mean mCherry level were removed. This method continues development of the original and decade-old 2-reporter system for intrinsic versus extrinsic noise measurements in bacteria (Elowitz et al., (2002) Science 297:1183-1186).

HIV-1 LTR promoter [2] = experiment: as above; assay type: cell-based; conditions: alternate set of integration sites
HIV-1 LTR promoter [3] = assay type: cell-based; conditions: for variability in gene expression (noise magnitude): known transcriptional modulators applied to the isoclone target, FIG. 6D
[4] = tested on: latent HIV-1 in primary human CD4+ T cells; assay type: cell-based
Text: (§2) Details on the Siliciano T-Cell model of HIV-1 latency can be found in Yang et al., 2009, J Clin Invest 119:3473-3486. Details on the Planelles T-Cell model of HIV-1 latency can be found in Bosque and Planelles, 2009, Blood 113:58-65.
(§3) To test if VMs enhance reactivation in a primary cell model of latency 14 VMs were selected from the 85 VMs initially screened on the JLat cell line. […] Two separate primary cell models of latency were screened (Bosque and Planelles, 2009, Blood 113:58-65; Yang et al., 2009, J Clin Invest 119:3473-3486) The Siliciano model of latency is generated using primary human CD4+ T cells which are transduced with Bcl-2 to allow long-term in vitro survival. The Bcl-2^+ cells are activated with -CD3/-CD28 antibody and infected with a GFP expressing virus. Cells remain in culture for over a month to allow transition into resting memory states and then sorted for GFP-cells after which the sorted cells are the latent pool of cells tested for reactivation. […] Reactivation experiments were designed with a positive control (PMA with Ionomycin or -CD3/-CD28 activation) as well as media only or VM treatment measurements.

[5] = tested on: latent HIV-1 in JLat 8.6 cells; assay type: cell-based
[6] = tested on: latent HIV-1 in primary cells of two donors; assay type: cell-based
Text: as §2, §3

HIV-1 LTR promoter [7] = experiment: Single-cell time-lapse fluorescence microscopy of polyclonal LTR d2GFP cell population; assay type: cell-based; conditions: hydrochloride
Text: Lentiviral vectors expressing the LTR-GFP cassette in the absence of Tat were described (Weinberger et al., 2005, Cell, 122(2):169-182) and used to infect 5×10^5 Jurkat cells at a multiplicity of infection <0.1, resulting in 25,000-50,000 infected cells each presumably with a unique integration site. Cells were then sorted by FACS to isolate green fluorescent protein-labeled (GFP+) cells and fluorescently imaged on glass-bottom dishes in RPMI 1640 with 10% fetal calf serum and 1% penicillin-streptomycin and 10 μM of VM at t=0 h for the population which was pre-treated with VM 1 day before imaging. […] For each trajectory, noise autocorrelation [Φ(t)] and magnitude (CV^2) were calculated using an established noise-processing algorithm (Weinberger at al., 2008, Nature Genetics, 40(4):466-470; Dar at al., 2012, Proc Natl Acad Sci USA 109:17454-17459; Boehm et al., 2013, Cell Cycle 12:452-462).
To assess whether identified VMs are specific to the integration site of the drug screen target, a polyclonal LTR d2GFP population was treated with select VM hits and imaged using time-lapse single cell fluorescence microscopy (Dar et al., 2012, Proc Natl Acad Sci USA 109:17454-17459; Boehm et al., 2013, Cell Cycle 12:452-462) (FIG. 6C). […]

[8] = tested on: latent HIV-1 in JLat cell lines; experiment: Dose response of reactivation in JLat cell lines (FIG. 14); assay type: cell-based; conditions: with TNF or Prostratin
Procedure: FIGS. 14A and 14B schematically depict dose response curves for compounds V14 and V82 with TNF and Prostratin. FIG. 14A schematically depicts V14 dose response curves with four different concentrations of TNF (left) and five different concentrations of Prostratin (right) at 24 and 48 hours. […] Details are described, e.g., in Example 9.
as §1

[9] = in vivo, cited from earlier work
[10] = Pharmakon 1600 library, 10 uM, 24 hours, FIG. 10

In the case of `O=C(CCCCCCC(=O)Nc1ccccc1)NO` [SAHA, N-hydroxy-N′-phenyl-octanediamide], the “off-target cytotoxicity for uninfected cells” value (JLat cell line 8.6) is reported as “substantial off-target cytotoxicity”, the d2GFP noise (HIV-1 LTR promoter [1]) is reported as “increase d2GFP noise” and the mCherry noise (HIV-1 LTR promoter [1]) is reported as “decrease mCherry noise”. For the same molecule, the “transcriptional burst frequency (decreasing noise in mCherry)” value (HIV-1 LTR promoter [1]) was “increase transcriptional burst frequency”, the “transcriptional variability (d2GFP) with dose response” value (HIV-1 LTR promoter [2]) was “increasing transcriptional variability” and the “identified as variability enhancer (VE) in noise screen” value (shortened to “identified as variability enhancer”) (HIV-1 LTR promoter [3]; [10]) was “variability enhancers”. The “variability in gene expression (noise magnitude)” value (from here on “variability in gene expression”) (HIV-1 LTR promoter [3]) was “increase variability in gene expression; also recorded: variability enhancers”.
With `CC(/C=C/C(=O)NO)=C\[C@@H](C)C(=O)c1ccc(N(C)C)cc1` [TSA, [R-(E,E)]-7-[4-(Dimethylamino)phenyl]-N-hydroxy-4,6-dimethyl-7-oxo-2,4-heptadienamide] the d2GFP noise (HIV-1 LTR promoter [1]) was “increase d2GFP noise”, the mCherry noise (HIV-1 LTR promoter [1]) was “decrease mCherry noise” and the “transcriptional burst frequency (decreasing noise in mCherry)” value (HIV-1 LTR promoter [1]) was “increase transcriptional burst frequency”. For the same molecule, the “transcriptional variability (d2GFP) with dose response” value (HIV-1 LTR promoter [2]) was “increasing transcriptional variability” and the “variability in gene expression” value (HIV-1 LTR promoter [3]) was “increase variability in gene expression; also recorded: variability enhancers”.
In the case of `C[C@]12CC[C@@H]3c4ccc(OC(=O)N(CCCl)CCCl)cc4CC[C@H]3[C@@H]1CC[C@@H]2O` [V3, estramustine], the synergy with activators [4] is reported as “synergized with either PMA, prostratin or bryostatin; also recorded: appear to synergize with all three activators”, the “synergy in reactivation of HIV-1 latency” value [5] is reported as “synergized” and the “identified as variability enhancer” value (HIV-1 LTR promoter [3]; [10]) is reported as “variability enhancers”.
In the case of `O=C(O)Cc1ccc(-c2ccccc2)cc1` [V4, felbinac], the synergy with bryostatin [6] is reported as “synergized with bryostatin”, the “synergy in reactivation of HIV-1 latency” value [5] is reported as “synergized” and the “identified as variability enhancer” value (HIV-1 LTR promoter [3]; [10]) is reported as “variability enhancers”.
For `C[C@]12C=CC(=O)N[C@@H]1CC[C@@H]1[C@@H]2CC[C@]2(C)[C@@H](C(=O)Nc3cc(C(F)(F)F)ccc3C(F)(F)F)CC[C@@H]12` [V10, dutasteride], the synergy with activators [4] was “synergized with either PMA, prostratin or bryostatin; also recorded: appear to synergize with all three activators”, the “synergy in reactivation of HIV-1 latency” value [5] was “synergized” and the “identified as variability enhancer” value (HIV-1 LTR promoter [3]) was “variability enhancers”.
In the case of `O=C(O)COCCN1CCN(C(c2ccccc2)c2ccc(Cl)cc2)CC1` (stereo not drawn) [V11, cetirizine hydrochloride], the “viability when combined with TNFα and Prostratin” value (JLat cell line 8.6) is reported as “without significant reduction in viability”, the “high frequency noise magnitude (HF-CV^2) versus untreated polyclonal population” value (HIV-1 LTR promoter [7]) is reported as “increased high frequency noise magnitude; also recorded: increased noise magnitude trends above the untreated population” and the “concentration at peak in HIV-1 reactivation” value [5] is reported as 25 µM. The “synergy in reactivation of HIV-1 latency” value [5] was “synergized”, the “reactivation relative to Prostratin alone” value ([5]; hydrochloride) was “about twice; also recorded: about three times” and the “reactivation relative to TNFα alone” value ([5]; hydrochloride) was “about twice; also recorded: about three times”. The “reactivation relative to TNFα or Prostratin alone (dose response surface)” value ([5]; hydrochloride) was “more than three times; also recorded: almost double; also recorded: greater reactivation”, the “reactivation when combined with TNFα and Prostratin” value ([5]; hydrochloride) was “further increase reactivation; also recorded: increased activation” and the “gene expression noise versus compound concentration” value (HIV-1 LTR promoter [3]) was “increasing trend in gene expression noise”. The “identified as variability enhancer” value (HIV-1 LTR promoter [3]) was “variability enhancers”.
For `C[C@@H]1CC[C@H]2[C@@H](C)C(=O)O[C@@H]3O[C@@]4(C)CC[C@@H]1[C@]32OO4` [V14, artemisinin], the “viability when combined with TNFα and Prostratin” value (JLat cell line 8.6) was “without significant reduction in viability”, the synergy with bryostatin [6] was “synergized with bryostatin” and the “concentration at peak activation” value ([8]; 24 and 48 hours) was “about 10 μM”. The “synergy in reactivation of HIV-1 latency” value [5] was “synergized”, the “reactivation when combined with TNFα and Prostratin” value ([5]; VM + TNFα + Prostratin, 48 hours) was “further increase reactivation; also recorded: increased activation” and the “identified as variability enhancer” value (HIV-1 LTR promoter [3]; [10]) was “variability enhancers”.
For `O=c1[nH]c(=O)n([C@H]2C[C@H](O)[C@@H](CO)O2)cc1I` [V82, idoxuridine], the “concentration at maximal reactivation” value ([8]; 48 hours, two JLat cell lines) was 50 µM, the “synergy in reactivation of HIV-1 latency” value [5] was “synergized” and the “identified as variability enhancer” value (HIV-1 LTR promoter [3]; [10]) was “variability enhancers”.
In the case of `CCCC(CCC)C(=O)O` [VPA, 2-propylpentanoic acid], the d2GFP noise (HIV-1 LTR promoter [1]) is given as “increase d2GFP noise”, the mCherry noise (HIV-1 LTR promoter [1]) is given as “decrease mCherry noise” and the “time of peak serum levels” value ([9]; po) is given as 1 to 4 h. The serum half-life [9] was 6 to 16 h and the “variability in gene expression” value (HIV-1 LTR promoter [3]) was “increase variability in gene expression; also recorded: variability enhancers”.
